Entries after “also recorded” stand apart in the source; their conditions may differ. Read-outs that look alike come from different tables or passages of the source. Where no end group is shown, it is not given here.
Legend:
avidin-agarose = assay: Avidin-agarose precipitation of fluoresceinated and biotinylated amylin substrates; assay type: binding; settings: for precipitation by / binding to avidin(-agarose) of uncleaved substrate: uncleaved substrate (- IDE), 1 μM, fluorescence read-out
Text: In previous work, we developed robust proteolytic degradation assays for Aβ [18] and glucagon on the basis of synthetic versions of these substrates containing fluorescein at the N‑terminus and biotin (in the form of Lys(Ahx-biotin)) at the C-terminus. This general approach enables a facile method for detecting hydrolysis, which we call avidin-agarose precipitation (AP). Briefly, hydrolysis can be readily quantified by removing the intact (biotinylated and fluoresceinated) substrates with avidin-agarose, then quantifying the remaining (fluoresceinated only) proteolytic fragments by fluorescence. This approach has the advantage of being readily implementable in any laboratory equipped with a fluorescence reader. Although convenient, the AP protocol requires centrifugation and liquid transfer steps that make it less amenable to high-throughput or robotized applications (Figure 1a).
Because the C-terminal portion of human amylin is the most aggregation-prone region of the peptide, we hypothesized that strong secondary structure in this area may have rendered the biotin moiety inaccessible to productive interactions with avidin. […] In one version, substrate 2 (Figure 1c; Table 1), we swapped the positions of the fluorescein and biotin groups, while in the other, substrate 3 (Figure 1d; Table 1), we maintained their placement at the N‑ and C-termini, respectively. […] On the basis of these preliminary results, we elected to use substrate 3 for downstream assay development, renaming it FrAB (fluorescein-rodent amylin-biotin). As expected, hydrolysis of FrAB could be readily monitored using the AP protocol, with hydrolysis resulting in a steady increase in fluorescence signal as a function of time in the presence of low quantities of IDE (Figure 1e).

recombinant human IDE [1] = molecular target: T1, recombinant human IDE (Homo sapiens, UniProt P14735); assay: Fluorescence change on full cleavage by IDE; assay type: biochemical; parameters: made in house; settings: complete hydrolysis by excess IDE, 1 μM substrate, before avidin-agarose precipitation
Procedure: Substrates were dissolved in DMSO as 1 mM stocks as calculated from the manufacturer-provided weight of lyophylized peptide and its MW, taking into account purity levels. […] The specific activity of recombinant IDE was verified to be within 5% of the value determined from protein concentration (quantified by nanodrop).
For fluorescence-dequenching assays, reactions were typically performed directly in low-volume 384-well microplates, and because the measurements could be monitored continuously, there was no need to stop the reactions. To that end, 3× IDE solution (10 µL) was combined with 3× compound or DMSO (10 µL) and allowed to equilibrate for ≥5 min at room temperature. Reactions were initiated by addition of 3× FrAB substrate (10 µL), typically at 100 nM final concentration. Fluorescence (λex = 336 nm, λem = 490 nm) was monitored repeatedly at frequent intervals (e.g., 30 s) on a multilabel plate reader (SpectraMAX, Molecular Devices, San Jose, CA, USA) using the default fluorescence measurement protocol.

[2] = system: insulin-degrading enzyme (IDE); settings: cited from earlier work
Text: Amylin is a 37-residue peptide with a highly conserved sequence that is present in all mammals. To be fully active, two major post-translational modifications are required: a C-terminal amide (Tyr37) and a disulfide bond between two cysteine residues found at positions 2 and 7 [6]. […] As is true for other amyloidogenic substrates, such as the amyloid β-protein (Aβ), it is likely that multiple amylin proteases exist that work in ... || We also developed a FRET-based fluorescence dequenching assay, which was successful in many respects, but about which some caution is warranted. First, the particular placement of the fluorescing EDANS and quenching DABCYL groups was designed to be optimal for a known cleavage site hydrolyzed by IDE [26]. This particular placement may not be ideal for other amylin proteases, depending on where they cleave the peptide. Secondly, whereas the FrAB-based AP and FP protocols both yielded kinetic parameters close to one another and also similar in magnitude to those obtained for other IDE substrat ...

[3] = system: beta-site APP-cleaving enzyme 2 (BACE2); settings: cited from earlier work
Text: Amylin is a 37-residue peptide with a highly conserved sequence that is present in all mammals. To be fully active, two major post-translational modifications are required: a C-terminal amide (Tyr37) and a disulfide bond between two cysteine residues found at positions 2 and 7 [6]. […] As is true for other amyloidogenic substrates, such as the amyloid β-protein (Aβ), it is likely that multiple amylin proteases exist that work in ...

[4] = Effect of avidin concentration on FP (mP) of FrAB; assay type: binding
Text: To assess the suitability of FrAB to the FP protocol, we measured the degree of depolarization (measured in millipolarization units, mP) in uncleaved versus fully cleaved substrate in the absence or presence of excess avidin. […] Not only was substantially less depolarization observed with the intact substrate alone, but the depolarization was reduced even further by the addition of avidin (Figure 1g). As expected from the preceding results, hydrolysis of FrAB as a function of time could be readily monitored using the FP protocol (Figure 1h).
Avidin (and avidin-agarose) is an expensive reagent, and thus it is valuable to establish the minimum avidin/FrAB ratio necessary for reliable results. To that end, we added varying amounts of avidin to a fixed quantity (100 nM) of both cleaved and uncleaved FrAB and assessed the results using the FP protocol. […] Accordingly, we recommend that a minimum avidin/FrAB ratio of ≈10:1 be used in practice.

recombinant human IDE [5] = molecular target: T1, recombinant human IDE; settings: FrAB substrate, FP protocol (corrected), 1 nM IDE; mean ± SEM of four independent replications
Procedure: For fluorescence polarization (FP)-based assays, reactions were typically performed directly in low-volume 384-well microplates. To that end, 3× IDE solution (8 µL) was combined with 3× compound or DMSO (8 µL) and allowed to equilibrate for ≥5 min at room temperature. Reactions were initiated by addition of 3× FrAB substrate (8 µL), typically at 100 nM final concentration, except where indicated. After the appropriate incubation period, reactions were terminated by addition of 4× FP Stop Buffer (8 µL; PBS/0.05% biotin-free BSA containing a final concentration of 2 mM 1,10-phenanthroline and 10-fold molar excess avidin (monomer)), triturated ≥3 times to ensure even mixing. […] Fluorescence polarization (λex = 485 nm, λem = 515 nm) was read on a multilabel plate reader (SpectraMAX M5^e, Molecular Devices, San Jose, CA, USA) using the default fluorescence polarization protocol, with the g-factor value maintained at 1.0. high-throughput screening (HTS) being performed manually using a 16-channel pipettor.
(§1) For all assays, results were normalized to data from negative (0% hydrolysis, no IDE) and positive (100% hydrolysis, excess IDE) controls and, where appropriate, expressed as percent hydrolysis. In the case of AP-based assays, percent hydrolysis was a linear function of the percent maximal change in relative fluorescence (RFU; %ΔRFU) between positive and negative controls. […]

recombinant human IDE [6] = molecular target: T1, recombinant human IDE; settings: FrAB substrate, AP protocol, 1 nM IDE; mean ± SEM of four independent replications
Procedure: The specific activity of recombinant IDE was verified to be within 5% of the value determined from protein concentration (quantified by nanodrop).
To ensure homogeneity of solution concentrations, we mixed all solutions well by gentle rocking on a nutator for ≥10 min at room temp (21–23 °C), and dispensed them manually using 16-channel pipettors fitted with 20-µL FinnTip pipette tips. For experiments conducted in 384-well plates, or transfers thereto, mixing was performed by ≥3 rounds of trituration after dispensing of the final solution. […] After we carefully removed the tubes from the centrifuge to avoid disturbing the pelleted avidin-agarose, the supernatant was transferred to low-volume 384-well microplates (30 µL/well), then fluorescence (λex = 485 nm, λem = 515 nm) was read on a multilabel plate reader (SpectraMAX, Molecular Devices, San Jose, CA, USA).
as §1

[7] = cited from earlier work
Text: Amylin, also known as islet amyloid polypeptide, is a peptide hormone that is stored in pancreatic beta-cells and co-secreted with insulin in response to many factors, including glucose, arginine, and fatty acids. Amylin plays a role in inhibiting glucagon secretion and delaying gastric emptying as well as modulating other aspects of food processing and satiety.

In the case of “[5-FAM]KCNTATCATQRLANFLVHSSNNFGAILSSTNVGSNTY[Lys(Ahx-biotin)]-amide (disulfide) (5-FAM N-term, Lys(Ahx-biotin) C-term amide, disulfide) [Substrate 1]”, the “precipitation by / binding to avidin(-agarose) of uncleaved substrate” value (from here on “precipitation by / binding”) (avidin-agarose) is reported as “biotin does not bind to avidin”, the “precipitation by / binding” value (avidin-agarose; listed as substrate 1) is reported as “could not be precipitated by avidin-agarose” and the “fluorescence increase relative to uncleaved substrate (in words)” value (recombinant human IDE [1]) is reported as “modest increase in fluorescence”.
For “amylin: 37-residue pancreatic peptide hormone, also known as islet amyloid polypeptide (KCNTATCATQRLANFLVHSSNNFGAILSSTNVGSNTY; not fully specified (C-terminus, bridges); cysteine pairing not given here; UniProt P10997 34-70, looked up)”, the “hydrolysis by IDE” value [2] is given as “can be hydrolyzed” and the “hydrolysis by BACE2” value [3] is given as “can be hydrolyzed”.
In the case of “avidin: avidin, a 64-kDa tetramer; egg white avidin [reference compound]”, the EC50 ([4]; avidin (monomer) concentration, uncleaved FrAB 100 nM, FP, n = 4 (mean ± SEM), read-out: apparent EC50 of avidin for increase in mP) is reported as 33.5 ± 7.5 nM and the “avidin concentration at which increase in mP values reaches a plateau” value ([4]; avidin (monomer), 100 nM FrAB, FP protocol) is reported as “≈ 1 µM”.
For fluorescein-rodent amylin-biotin [FrAB], the “fluorescence of fully cleaved substrate after avidin-agarose precipitation” value (avidin-agarose; fully cleaved by IDE, 1 μM substrate, listed as substrate 3) was “remained constant before and after AP; also recorded: strong fluorescence signal after precipitation”, the “precipitation by / binding” value (avidin-agarose; listed as substrate 3) was “readily precipitated by avidin-agarose” and the “depolarization of light by fully cleaved substrate” value ([4]; FrAB 1 μM, fully hydrolyzed (+ IDE) vs. uncleaved, FP) was “significantly more than uncleaved substrate”. The “effect of avidin on mP of fully cleaved substrate” value ([4]; fully cleaved FrAB, 100 nM, FP protocol) was “unaffected by avidin; also recorded: unaffected even by very high concentrations of avidin”, the kcat/KM (recombinant human IDE [5]) was “≈ 1 × 10^7 M^-1 s^-1” and the kcat/KM (recombinant human IDE [6]) was “≈ 1 × 10^7 M^-1 s^-1”.
For “glucagon: peptide hormone relevant to glucose homeostasis”, the “degradation by IDE” value [2] is listed as “IDE also degrades”.
In the case of “human amylin: aggregation-prone human form of amylin (KCNTATCATQRLANFLVHSSNNFGAILSSTNVGSNTY; not fully specified (C-terminus, bridges); cysteine pairing not given here; UniProt P10997 34-70, looked up)”, the aggregation propensity ([7]; human amylin) is listed as “highly aggregation-prone”.
In the case of “insulin: peptide hormone relevant to glucose homeostasis”, the “degradation by IDE” value [2] is listed as “IDE also degrades”.
In the case of “rodent amylin: rodent amylin, far less prone to aggregation than the human peptide”, the aggregation propensity ([7]; rodent amylin vs. human peptide) is listed as “far less prone to aggregation and secondary structure formation than the human peptide”.
